Values of other authors in patent US20060201863A1, “Sterilization water tank” (priority 2003, published 2006).

Key:
[1] = tested on: Rice-straw bacillus; settings: against Rice-straw bacillus
[2] = tested on: Bacteria; settings: against Bacteria
[3] = tested on: Staphylococcus; settings: against Staphylococcus
[4] = tested on: Pneumonia bacillus; settings: against Pneumonia bacillus
[5] = tested on: Colitis germs; settings: against Colitis germs
[6] = tested on: Salmonella; settings: against Salmonella
[7] = tested on: Pseudomonas aeruginosa; settings: against Pseudomonas aeruginosa
[8] = tested on: Colitis germs; settings: silver in an ionized state

Structure (SMILES)	MIC (minimum inhibitory concentration) [1] [ppm]	MIC (minimum inhibitory concentration) [2] [ppm]	MIC (minimum inhibitory concentration) [3] [ppm]	MIC (minimum inhibitory concentration) [4] [ppm]	MIC (minimum inhibitory concentration) [5] [ppm]	MIC (minimum inhibitory concentration) [6] [ppm]	MIC (minimum inhibitory concentration) [7] [ppm]	amount that may kill colitis germs [8]
[Cu+2] [Copper ion, reference compound]	400	400	400	200	200	400	400	
[Ag+] [Silver ion]	1.56	0.78	0.78	0.78	6.3	0.78	0.78	about several ten
